Laboratory results taken from patent publication US11439707B2, “Hypocrellin derivative substituted both in a peri-position and in 2-position by amino, preparation method, and application thereof” (priority 2017, dated 2022).
“And” between values parts separate entries of the source, which are not always exact repeats. Equal values may be shown once.

Assays:
[1] = absorption spectrum (maximum absorption wavelength, molar extinction coefficient); assay type: physicochemical
[2] = singlet oxygen efficiency test, reference rose bengal; assay type: physicochemical

COc1c(NCC2CCC(C(=O)O)CC2)c2c(=O)cc(OC)c3c4c(OC)cc(=O)c5c(O)c(NCC6CCC(C(=O)O)CC6)c6c(c(c1C(C(C)=O)C(C)=C6)c23)c54 (stereo not drawn) [HB-13b]
maximum absorption wavelength [1]: 621 nm | molar extinction coefficient [1]: 28,000 M^−1cm^−1 | singlet oxygen yield [2]: 26%

COc1c2c3c4c(c(NC(CCC(=O)O)C(=O)O)c(=O)c5c(O)cc(OC)c(c6c(OC)cc(NC(CCC(=O)O)C(=O)O)c(c1=O)c63)c54)C=C(C)C2C(C)=O (stereo not drawn) [HB-28d]
maximum absorption wavelength [1]: 620 nm | molar extinction coefficient [1]: 20,500 M^−1cm^−1 | singlet oxygen yield [2]: 18%

COc1c2c3c4c(c(NCCNCCOCCO)c(=O)c5c(O)c(Br)c(OC)c(c6c(OC)cc(NCCNCCOCCO)c(c1=O)c63)c54)C=C(C)C2C(C)=O (stereo not drawn) [HB-5d-Br-PEG1]
maximum absorption wavelength [1]: 624 nm | molar extinction coefficient [1]: 29,500 M^−1cm^−1 | singlet oxygen yield [2]: 32%

COCCOCCOCCOCCOC(=O)C1CCC(CNc2c3c4c5c(c(OC)c(=O)c6c(O)cc(OC)c(c7c(OC)cc(NCC8CCC(C(=O)OCCOCCOCCOCCOC)CC8)c(c2=O)c74)c65)CC(C)=C3)CC1 (stereo not drawn) [HC-13c-PEG4]
maximum absorption wavelength [1]: 632 nm | molar extinction coefficient [1]: 31,500 M^−1cm^−1 | singlet oxygen yield [2]: 36%

COc1c2c3c4c(c(NCC5CCC(C(=O)OCCCC[P+](c6ccccc6)(c6ccccc6)c6ccccc6)CC5)c(=O)c5c(O)cc(OC)c(c6c(OC)cc(NCC7CCC(C(=O)OCCCC[P+](c8ccccc8)(c8ccccc8)c8ccccc8)CC7)c(c1=O)c63)c54)C=C(C)C2 (stereo not drawn) [HC-30d-C4-PPh3^+]
maximum absorption wavelength [1]: 630 nm | molar extinction coefficient [1]: 32,500 M^−1cm^−1 | singlet oxygen yield [2]: 31%

COc1c(O)c2c(=O)cc(OC)c3c4c(OC)cc(=O)c5c(NCCO)c(NCCO)c6c(c(c1C(C(C)=O)C(C)=C6)c23)c54 (stereo not drawn) [HB-2a]
singlet oxygen yield [2]: 28%

COCCOCCOCCOCCOCCOCCOC(=O)C1CCCCC1Nc1c(O)c2c(=O)cc(OC)c3c4c(OC)cc(=O)c5c(NC6CCCCC6C(=O)OCCOCCOCCOCCOCCOCCOC)c(OC)c6c(c(c1C=C(C)C6C(C)=O)c23)c54 (stereo not drawn) [HB-16b-PEG6]
maximum absorption wavelength [1]: 624 nm | molar extinction coefficient [1]: 30,500 M^−1cm^−1 | singlet oxygen yield [2]: 32%

COCCOCCN1CCC(CNc2c(NCC3CCN(CCOCCOC)CC3)c3c(=O)cc(OC)c4c5c(OC)cc(=O)c6c(O)c(OC)c7c(c(c2C=C(C)C7C(C)=O)c34)c65)CC1 (stereo not drawn) [HB-32a-PEG1]
maximum absorption wavelength [1]: 622 nm | molar extinction coefficient [1]: 32,000 M^−1cm^−1 | singlet oxygen yield [2]: 32%

COCCOCCOCCOCCOCCOCCOCCN1CCC(CNc2c(O)c3c(=O)cc(OC)c4c5c(OC)cc(=O)c6c(NCC7CCN(CCOCCOCCOCCOCCOCCOCCOC)CC7)c(OC)c7c(c(c2C=C(C)C7C(C)=O)c34)c65)CC1 (stereo not drawn) [HB-32b-PEG6]
maximum absorption wavelength [1]: 622 nm | molar extinction coefficient [1]: 31,000 M^−1cm^−1 | singlet oxygen yield [2]: 38%

COCCOC(=O)C1CCC(Nc2c(NC3CCC(C(=O)OCCOC)CC3)c3c(=O)cc(OC)c4c5c(OC)cc(=O)c6c(O)c(OC)c7c(c(c2C=C(C)C7C(C)=O)c34)c65)CC1 (stereo not drawn) [HB-14a-PEG1]
maximum absorption wavelength [1]: 622 nm | molar extinction coefficient [1]: 30,500 M^−1cm^−1 | singlet oxygen yield [2]: 32%

COc1c(O)c2c(=O)cc(OC)c3c4c(OC)cc(=O)c5c(NCS(=O)(=O)O)c(NCCCS(=O)(=O)O)c6c(c(c1CC(C)=C6)c23)c54 [HC-45a]
maximum absorption wavelength [1]: 613 nm | molar extinction coefficient [1]: 21,000 M^−1cm^−1 | singlet oxygen yield [2]: 18%

COc1c2c3c4c(c(NCC5CCC(C(=O)NCCCC[P+](c6ccccc6)(c6ccccc6)c6ccccc6)CC5)c(=O)c5c(O)cc(OC)c(c6c(OC)cc(NCC7CCC(C(=O)NCCCC[P+](c8ccccc8)(c8ccccc8)c8ccccc8)CC7)c(c1=O)c63)c54)C=C(C)C2 (stereo not drawn) [HC-13d-NH—C4-PPh3+]
maximum absorption wavelength [1]: 618 nm | molar extinction coefficient [1]: 31,500 M^−1cm^−1 | singlet oxygen yield [2]: 30%

COc1c(O)c2c(=O)cc(OC)c3c4c(OC)cc(=O)c5c(NCCOCCO)c(NCCOCCO)c6c(c(c1C(C(C)=O)C(C)=C6)c23)c54 (stereo not drawn) [HB-1a]
maximum absorption wavelength [1]: 630 nm | molar extinction coefficient [1]: 30,000 M^−1cm^−1 | singlet oxygen yield [2]: 35%

COC(=O)C1CCC(CNc2c3c4c5c(c(OC)c(=O)c6c(O)cc(OC)c(c7c(OC)cc(NCC8CCC(C(=O)OC)CC8)c(c2=O)c74)c65)C(C(C)=O)C(C)=C3)CC1 (stereo not drawn) [HB-13c-AcE]
maximum absorption wavelength [1]: 621 nm | molar extinction coefficient [1]: 28,500 M^−1cm^−1 | singlet oxygen yield [2]: 30%

COc1c2c3c4c(c(NC5CCCC(C(=O)O)C5)c(=O)c5c(NC6CCCC(C(=O)O)C6)cc(OC)c(c6c(OC)cc(O)c(c1=O)c63)c54)C=C(C)C2C(C)=O (stereo not drawn) [HB-15c]
maximum absorption wavelength [1]: 621 nm | molar extinction coefficient [1]: 28,000 M^−1cm^−1 | singlet oxygen yield [2]: 26%

COCCOCCOCCOCCOCCOCCOC(=O)C1CCCC(Nc2c(O)c3c(=O)cc(OC)c4c5c(OC)cc(=O)c6c(NC7CCCC(C(=O)OCCOCCOCCOCCOCCOCCOC)C7)c(OC)c7c(c(c2C=C(C)C7C(C)=O)c34)c65)C1 (stereo not drawn) [HB-15b-PEG6]
maximum absorption wavelength [1]: 624 nm | molar extinction coefficient [1]: 30,000 M^−1cm^−1 | singlet oxygen yield [2]: 34%

CCCCCCNc1c2c3c4c(c(OC)c(=O)c5c(NCCCCCC)cc(OC)c(c6c(OC)cc(O)c(c1=O)c63)c54)CC(C)=C2 [HC-34d]
maximum absorption wavelength [1]: 628 nm | molar extinction coefficient [1]: 32,000 M^−1cm^−1 | singlet oxygen yield [2]: 32%

COc1c(NC2(CO)CC2)c2c(=O)cc(OC)c3c4c(OC)cc(=O)c5c(O)c(NC6(CO)CC6)c6c(c(c1C(C(C)=O)C(C)=C6)c23)c54 (stereo not drawn) [HB-35b]
maximum absorption wavelength [1]: 620 nm | molar extinction coefficient [1]: 31,500 M^−1cm^−1 | singlet oxygen yield [2]: 30%

COc1c(O)c2c(=O)cc(OC)c3c4c(OC)cc(=O)c5c(NCC(=O)O)c(NCC(=O)O)c6c(c(c1CC(C)=C6)c23)c54 [HC-7a]
maximum absorption wavelength [1]: 620 nm | molar extinction coefficient [1]: 27,500 M^−1cm^−1 | singlet oxygen yield [2]: 28%

COc1c2c3c4c(c(NC(CC(N)=O)C(=O)O)c(=O)c5c(NC(CC(N)=O)C(=O)O)cc(OC)c(c6c(OC)cc(O)c(c1=O)c63)c54)C=C(C)C2C(C)=O (stereo not drawn) [HB-26c]
maximum absorption wavelength [1]: 614 nm | molar extinction coefficient [1]: 21,500 M^−1cm^−1 | singlet oxygen yield [2]: 21%

COCCOCCOCCOCCOCCOCCOCCC(=O)OCC1(Nc2c(O)c3c(=O)cc(OC)c4c5c(OC)cc(=O)c6c(NC7(COC(=O)CCOCCOCCOCCOCCOCCOCCOC)CC7)c(OC)c7c(c(c2C=C(C)C7C(C)=O)c34)c65)CC1 (stereo not drawn) [HB-35b-PEG6]
maximum absorption wavelength [1]: 624 nm | molar extinction coefficient [1]: 30,500 M^−1cm^−1 | singlet oxygen yield [2]: 32%

COc1c(NCC[N+]23CC[N+](C)(CC2)CC3)c2c(=O)cc(OC)c3c4c(OC)cc(=O)c5c(O)c(NCC[N+]67CC[N+](C)(CC6)CC7)c6c(c(c1C(C(C)=O)C(C)=C6)c23)c54 (stereo not drawn) [HB-41b]
maximum absorption wavelength [1]: 624 nm | molar extinction coefficient [1]: 31,500 M^−1cm^−1 | singlet oxygen yield [2]: 32%

COc1c(O)c2c(=O)cc(OC)c3c4c(OC)cc(=O)c5c(NC(CC(N)=O)C(=O)O)c(NC(CC(N)=O)C(=O)O)c6c(c(c1C(C(C)=O)C(C)=C6)c23)c54 (stereo not drawn) [HB-26a]
maximum absorption wavelength [1]: 614 nm | molar extinction coefficient [1]: 20,500 M^−1cm^−1 | singlet oxygen yield [2]: 20%

COc1c(O)c2c(=O)cc(OC)c3c4c(OC)cc(=O)c5c(NCCC(=O)NCCN6CCOCC6)c(NCCC(=O)NCCN6CCOCC6)c6c(c(c1C(C(C)=O)C(C)=C6)c23)c54 (stereo not drawn) [HB-42a]
maximum absorption wavelength [1]: 620 nm | molar extinction coefficient [1]: 32,500 M^−1cm^−1 | singlet oxygen yield [2]: 33%

COCCOCCOC(=O)C1CCCC1Nc1c(NC2CCCC2C(=O)OCCOCCOC)c2c(=O)cc(OC)c3c4c(OC)cc(=O)c5c(O)c(OC)c6c(c(c1C=C(C)C6C(C)=O)c23)c54 (stereo not drawn) [HB-21a-PEG1]
maximum absorption wavelength [1]: 624 nm | molar extinction coefficient [1]: 31,500 M^−1cm^−1 | singlet oxygen yield [2]: 30%

COc1c(O)c2c(=O)cc(OC)c3c4c(OC)cc(=O)c5c(NCCCC(=O)O)c(NCCCC(=O)O)c6c(c(c1CC(C)=C6)c23)c54 [HC-8a]
maximum absorption wavelength [1]: 620 nm | molar extinction coefficient [1]: 28,500 M^−1cm^−1 | singlet oxygen yield [2]: 26%

COc1c2c3c4c(c(NCCCC(=O)NCCCCCCS(=O)(=O)O)c(=O)c5c(NCCCC(=O)NCCCCCCS(=O)(=O)O)cc(OC)c(c6c(OC)cc(O)c(c1=O)c63)c54)C=C(C)C2 [HC-8c-NH—C6-SO3H]
maximum absorption wavelength [1]: 632 nm | molar extinction coefficient [1]: 33,500 M^−1cm^−1 | singlet oxygen yield [2]: 35%

COc1c2c3c4c(c(NCCCC(=O)O)c(=O)c5c(O)cc(OC)c(c6c(OC)cc(NCCCC(=O)O)c(c1=O)c63)c54)C=C(C)C2 [HC-8d]
maximum absorption wavelength [1]: 623 nm | molar extinction coefficient [1]: 27,000 M^−1cm^−1 | singlet oxygen yield [2]: 26%

CCNNc1c(NNCC)c2c(=O)cc(OC)c3c4c(OC)cc(=O)c5c(O)c(OC)c6c(c(c1C=C(C)C6C(C)=O)c23)c54 (stereo not drawn) [HB-36a]
maximum absorption wavelength [1]: 621 nm | molar extinction coefficient [1]: 30,500 M^−1cm^−1 | singlet oxygen yield [2]: 32%

COc1c2c3c4c(c(NCC(=O)O)c(=O)c5c(O)cc(OC)c(c6c(OC)cc(NCC(=O)O)c(c1=O)c63)c54)C=C(C)C2 [HC-7d]
maximum absorption wavelength [1]: 626 nm | molar extinction coefficient [1]: 26,000 M^−1cm^−1 | singlet oxygen yield [2]: 25%

COc1c(O)c2c(=O)cc(OC)c3c4c(OC)cc(=O)c5c(NC6CCC(C(=O)O)C6)c(NC6CCC(C(=O)O)C6)c6c(c(c1C(C(C)=O)C(C)=C6)c23)c54 (stereo not drawn) [HB-19a]
maximum absorption wavelength [1]: 621 nm | molar extinction coefficient [1]: 25,500 M^−1cm^−1 | singlet oxygen yield [2]: 21%

COc1c2c3c4c(c(NC(C(=O)O)C(C)C)c(=O)c5c(O)cc(OC)c(c6c(OC)cc(NC(C(=O)O)C(C)C)c(c1=O)c63)c54)C=C(C)C2C(C)=O (stereo not drawn) [HB-22d]
maximum absorption wavelength [1]: 625 nm | molar extinction coefficient [1]: 21,500 M^−1cm^−1 | singlet oxygen yield [2]: 22%

C=CC1=C(C)c2cc3[nH]c(cc4[nH]c(cc5nc(cc1n2)C(C)=C5C=C)c(C)c4CCC(=O)O)c(CCC(=O)O)c3C [PpIX, reference compound]
maximum absorption wavelength [1]: 570 nm and 630 nm | molar extinction coefficient [1]: less than 10000 M^−1cm^−1
